Reference: ChEMBL document CHEMBL5107987, “New naphtho/thienobenzo-triazoles with interconnected anti-inflammatory and cholinesterase inhibitory activity” (Eur J Med Chem, 2022)

Assays:
[1] = Inhibition of TNF-alpha production in LPS-stimulated human PBMC measured after 24 hrs by ELISA relative to control; type: functional
[2] = Cytotoxicity against human PBMC assessed as effect on cell viability measured by Cell Titer Glo assay; type: toxicity, cell-based
[3] = target: Cholinesterase (Equus caballus) (UniProt P81908); assay: Inhibition of equine serum BuChE using S-butyrylthiocholine iodide as substrate pre-incubated for 5 mins followed by substrate addition at 100 uM and measured after 6 mins by Ellman's method relative to control
[4] = target: Acetylcholinesterase (Electrophorus electricus) (UniProt O42275); assay: Inhibition of electric eel AChE using acetylthiocholine iodide as substrate pre-incubated for 5 mins followed by substrate addition at 100 uM and measured after 6 mins by Ellman's method relative to control
[5] = Inhibition of TNF-alpha production in LPS-stimulated human PBMC measured after 24 hrs by ELISA; type: functional, cell-based
[6] = target: Cholinesterase (Equus caballus, UniProt P81908); assay: Inhibition of equine serum BuChE using S-butyrylthiocholine iodide as substrate pre-incubated for 5 mins followed by substrate addition and measured after 6 mins by Ellman's method
[7] = target: Cholinesterase (Equus caballus) (UniProt P81908); assay: Inhibition of equine serum BuChE using S-butyrylthiocholine iodide as substrate pre-incubated for 5 mins followed by substrate addition at 500 uM and measured after 6 mins by Ellman's method relative to control
[8] = target: Acetylcholinesterase (Electrophorus electricus, UniProt O42275); assay: Inhibition of electric eel AChE using acetylthiocholine iodide as substrate pre-incubated for 5 mins followed by substrate addition and measured after 6 mins by Ellman's method
[9] = target: Acetylcholinesterase (Electrophorus electricus) (UniProt O42275); assay: Inhibition of electric eel AChE using acetylthiocholine iodide as substrate pre-incubated for 5 mins followed by substrate addition at 500 uM and measured after 6 mins by Ellman's method relative to control
[10] = target: Cholinesterase (Equus caballus) (UniProt P81908); assay: Inhibition of equine serum BuChE using S-butyrylthiocholine iodide as substrate pre-incubated for 5 mins followed by substrate addition at 250 uM and measured after 6 mins by Ellman's method relative to control
[11] = target: Cholinesterase (Equus caballus) (UniProt P81908); assay: Inhibition of equine serum BuChE using S-butyrylthiocholine iodide as substrate pre-incubated for 5 mins followed by substrate addition at 50 uM and measured after 6 mins by Ellman's method relative to control
[12] = target: Cholinesterase (Equus caballus) (UniProt P81908); assay: Inhibition of equine serum BuChE using S-butyrylthiocholine iodide as substrate pre-incubated for 5 mins followed by substrate addition at 800 uM and measured after 6 mins by Ellman's method relative to control
[13] = target: Acetylcholinesterase (Electrophorus electricus) (UniProt O42275); assay: Inhibition of electric eel AChE using acetylthiocholine iodide as substrate pre-incubated for 5 mins followed by substrate addition at 800 uM and measured after 6 mins by Ellman's method relative to control
[14] = target: Cholinesterase (Equus caballus) (UniProt P81908); assay: Inhibition of equine serum BuChE using S-butyrylthiocholine iodide as substrate pre-incubated for 5 mins followed by substrate addition at 200 uM and measured after 6 mins by Ellman's method relative to control
[15] = target: Acetylcholinesterase (Electrophorus electricus) (UniProt O42275); assay: Inhibition of electric eel AChE using acetylthiocholine iodide as substrate pre-incubated for 5 mins followed by substrate addition at 1000 uM and measured after 6 mins by Ellman's method relative to control

Chain of Cholinesterase (P81908 whole entry): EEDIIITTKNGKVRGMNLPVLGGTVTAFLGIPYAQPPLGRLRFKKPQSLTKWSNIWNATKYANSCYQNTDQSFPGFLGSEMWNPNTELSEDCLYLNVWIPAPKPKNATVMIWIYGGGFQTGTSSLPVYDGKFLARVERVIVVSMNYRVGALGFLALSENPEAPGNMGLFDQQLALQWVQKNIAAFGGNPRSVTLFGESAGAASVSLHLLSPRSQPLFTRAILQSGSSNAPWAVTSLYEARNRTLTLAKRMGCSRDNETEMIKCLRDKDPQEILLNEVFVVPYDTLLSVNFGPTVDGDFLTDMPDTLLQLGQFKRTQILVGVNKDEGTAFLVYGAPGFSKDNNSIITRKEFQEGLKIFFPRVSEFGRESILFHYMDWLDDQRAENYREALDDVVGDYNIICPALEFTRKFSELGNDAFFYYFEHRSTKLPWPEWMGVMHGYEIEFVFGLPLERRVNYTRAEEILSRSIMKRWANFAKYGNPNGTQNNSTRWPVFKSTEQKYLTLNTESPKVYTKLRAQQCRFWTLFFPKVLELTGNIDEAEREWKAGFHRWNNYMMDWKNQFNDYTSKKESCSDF
Chain of Cholinesterase (Equus caballus) (P81908 whole entry): as above
Chain of Acetylcholinesterase (Electrophorus electricus) (O42275 24-633 limits assumed): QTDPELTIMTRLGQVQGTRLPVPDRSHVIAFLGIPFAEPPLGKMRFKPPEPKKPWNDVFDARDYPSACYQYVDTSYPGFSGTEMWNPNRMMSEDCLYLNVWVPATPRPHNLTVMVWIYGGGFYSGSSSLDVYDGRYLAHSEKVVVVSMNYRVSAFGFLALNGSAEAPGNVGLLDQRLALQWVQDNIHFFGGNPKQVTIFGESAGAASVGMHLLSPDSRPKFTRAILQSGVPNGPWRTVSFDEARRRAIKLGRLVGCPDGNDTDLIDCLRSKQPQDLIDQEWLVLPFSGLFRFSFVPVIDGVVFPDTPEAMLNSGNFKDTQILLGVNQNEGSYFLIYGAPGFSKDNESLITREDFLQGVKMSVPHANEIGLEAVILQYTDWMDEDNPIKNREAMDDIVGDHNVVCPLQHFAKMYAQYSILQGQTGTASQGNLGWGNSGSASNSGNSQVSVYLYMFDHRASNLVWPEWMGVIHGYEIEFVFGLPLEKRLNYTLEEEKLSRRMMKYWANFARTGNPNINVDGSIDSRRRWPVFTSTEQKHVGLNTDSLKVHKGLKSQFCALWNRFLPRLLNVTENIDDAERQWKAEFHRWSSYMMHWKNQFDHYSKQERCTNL
Chain of Acetylcholinesterase (O42275 whole entry): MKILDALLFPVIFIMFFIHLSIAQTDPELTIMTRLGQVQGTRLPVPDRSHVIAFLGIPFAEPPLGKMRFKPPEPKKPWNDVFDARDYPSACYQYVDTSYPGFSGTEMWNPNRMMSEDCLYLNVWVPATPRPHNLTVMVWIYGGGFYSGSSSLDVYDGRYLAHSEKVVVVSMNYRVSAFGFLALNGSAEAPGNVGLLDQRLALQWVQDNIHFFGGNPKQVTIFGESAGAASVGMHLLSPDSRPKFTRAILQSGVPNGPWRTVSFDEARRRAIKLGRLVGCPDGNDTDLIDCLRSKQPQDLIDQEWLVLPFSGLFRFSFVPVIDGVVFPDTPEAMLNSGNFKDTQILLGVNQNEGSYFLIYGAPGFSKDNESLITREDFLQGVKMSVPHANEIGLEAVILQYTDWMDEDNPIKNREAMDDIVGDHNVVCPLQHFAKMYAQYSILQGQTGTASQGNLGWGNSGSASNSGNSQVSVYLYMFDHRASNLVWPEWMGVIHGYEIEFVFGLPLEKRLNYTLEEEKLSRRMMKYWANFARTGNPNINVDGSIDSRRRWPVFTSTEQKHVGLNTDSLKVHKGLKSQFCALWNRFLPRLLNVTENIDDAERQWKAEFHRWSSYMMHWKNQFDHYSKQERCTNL

With `c1ccc2[nH]c(CCn3nnc4ccc5sccc5c43)cc2c1` the “inhibition (INH)” value [1] was under 50% and the Activity [2] was “Non-Toxic”.
`O=[N+]([O-])c1ccc(-n2cc(/C=C\c3cccs3)nn2)cc1` showed an inhibition [3] of 12.3% and an inhibition [4] of 34.1%.
With `CC(c1ccccc1)n1cc(/C=C\c2cccs2)nn1` (stereo not drawn) the IC50 [5] was over 33 µM and the Activity [2] was “Non-Toxic”.
In the case of `C(=C/c1cccs1)/c1cn(CCc2cc3ccccc3[nH]2)nn1`, the IC50 [5] is reported as over 33 µM, the Activity [2] is reported as “Non-Toxic” and the IC50 [6] is reported as 234 µM. For the same molecule, the inhibition [7] was 59.5%, the IC50 [8] was 596 µM and the inhibition [9] was 67.4%.
For `COc1ccc(Cn2cc(/C=C\c3ccccc3C#N)nn2)cc1`, the IC50 [5] was over 33 µM and the Activity [2] was “Non-Toxic”.
For `C=CCn1cc(/C=C/c2cccs2)nn1`, the IC50 [5] was over 33 µM and the Activity [2] was “Non-Toxic”.
With `CC(C)n1nnc2ccc3ccc(Cl)cc3c21` the IC50 [5] was 22.2 µM and the Activity [2] was “Non-Toxic”.
In the case of `C=CCn1cc(/C=C\c2cccs2)nn1`, the IC50 [5] is reported as over 33 µM and the Activity [2] is reported as “Non-Toxic”.
With `C[C@@H]1C[C@H]2[C@@H]3CCC4=CC(=O)C=C[C@]4(C)[C@@]3(F)[C@@H](O)C[C@]2(C)[C@@]1(O)C(=O)CO` [DEXAMETHASONE] the IC50 [5] was 0.0036 µM.
With `CC(C)n1nnc2ccc3ccccc3c21` the “inhibition (INH)” value [1] was under 50%.
In the case of `COc1ccc(Cn2cc(/C=C/c3ccccc3C#N)nn2)cc1`, the IC50 [5] is reported as over 33 µM and the Activity [2] is reported as “Non-Toxic”.
With `CCCn1cc(/C=C/c2cccs2)nn1` the IC50 [5] was over 33 µM, the Activity [2] was “Non-Toxic” and the inhibition [10] was 79.2%. For the same molecule, the inhibition [9] was 36.9%.
In the case of `COc1ccc2ccc3nnn(CCCCO)c3c2c1`, the IC50 [5] is reported as 7.9 µM and the Activity [2] is reported as “Non-Toxic”.
In the case of `C=CCn1nnc2ccc3sccc3c21`, the IC50 [5] is reported as 27.7 µM, the Activity [2] is reported as “Non-Toxic” and the IC50 [6] is reported as 3.8 µM. It also gave an inhibition [11] of 80%, an IC50 [8] of 56.2 µM and an inhibition [9] of 76.9%.
With `OCCCCn1cc(/C=C\c2cccs2)nn1` the inhibition [12] was 48.7% and the inhibition [13] was 45.2%.
With `CCCn1cc(/C=C\c2cccs2)nn1` the IC50 [5] was over 33 µM, the Activity [2] was “Non-Toxic” and the IC50 [6] was 95.6 µM. It also gave an inhibition [14] of 66.1% and an inhibition [15] of 21.9%.
For `COc1ccc(Cn2nnc3ccc4cccc(C#N)c4c32)cc1`, the “inhibition (INH)” value [1] was under 50%.
For `CCCn1nnc2ccc3sccc3c21`, the “inhibition (INH)” value [1] was under 50%, the inhibition [14] was 91.7% and the inhibition [15] was 56.2%.
With `COc1ccc(Cn2nnc3ccc4ccc(OC)cc4c32)cc1` the IC50 [5] was 2.2 µM and the Activity [2] was “Non-Toxic”.
With `O=[N+]([O-])c1ccc(-n2nnc3ccc4sccc4c32)cc1` the “inhibition (INH)” value [1] was under 50%, the IC50 [6] was 449 µM and the inhibition [7] was 53.4%. The inhibition [9] was 43.3%.
